This note sets out measurements from US7300950B2, “Pyrazole derivatives, their preparation and their use in pharmaceuticals” (Aventis Pharma Deutschland GmbH, priority 1997, dated 2007).

Data set [1] deals with T1, soluble guanylate cyclase (sGC) isolated from bovine lung (Bos taurus, UniProt P16068+P19687).
T1 construct: The sGC which was employed had been isolated from bovine lung; from tissue; host or cells: bovine lung
T1 sequence (P16068 1-619): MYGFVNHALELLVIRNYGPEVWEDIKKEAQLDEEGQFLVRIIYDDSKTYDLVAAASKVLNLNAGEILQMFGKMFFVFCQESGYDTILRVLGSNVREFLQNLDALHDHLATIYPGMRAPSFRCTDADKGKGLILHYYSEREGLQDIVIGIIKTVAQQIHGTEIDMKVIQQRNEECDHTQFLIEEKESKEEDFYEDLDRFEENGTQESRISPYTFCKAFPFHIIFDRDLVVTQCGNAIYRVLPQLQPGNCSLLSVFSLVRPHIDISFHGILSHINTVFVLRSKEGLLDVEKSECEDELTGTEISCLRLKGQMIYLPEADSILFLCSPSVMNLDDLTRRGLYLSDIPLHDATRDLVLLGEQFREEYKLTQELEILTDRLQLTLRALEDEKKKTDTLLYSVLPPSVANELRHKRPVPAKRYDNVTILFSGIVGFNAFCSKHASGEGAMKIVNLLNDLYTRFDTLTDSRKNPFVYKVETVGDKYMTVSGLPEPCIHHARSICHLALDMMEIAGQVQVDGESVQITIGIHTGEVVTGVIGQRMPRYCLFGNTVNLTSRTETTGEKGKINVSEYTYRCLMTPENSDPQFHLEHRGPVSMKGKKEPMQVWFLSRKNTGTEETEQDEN
T1 sequence (P19687 1-691): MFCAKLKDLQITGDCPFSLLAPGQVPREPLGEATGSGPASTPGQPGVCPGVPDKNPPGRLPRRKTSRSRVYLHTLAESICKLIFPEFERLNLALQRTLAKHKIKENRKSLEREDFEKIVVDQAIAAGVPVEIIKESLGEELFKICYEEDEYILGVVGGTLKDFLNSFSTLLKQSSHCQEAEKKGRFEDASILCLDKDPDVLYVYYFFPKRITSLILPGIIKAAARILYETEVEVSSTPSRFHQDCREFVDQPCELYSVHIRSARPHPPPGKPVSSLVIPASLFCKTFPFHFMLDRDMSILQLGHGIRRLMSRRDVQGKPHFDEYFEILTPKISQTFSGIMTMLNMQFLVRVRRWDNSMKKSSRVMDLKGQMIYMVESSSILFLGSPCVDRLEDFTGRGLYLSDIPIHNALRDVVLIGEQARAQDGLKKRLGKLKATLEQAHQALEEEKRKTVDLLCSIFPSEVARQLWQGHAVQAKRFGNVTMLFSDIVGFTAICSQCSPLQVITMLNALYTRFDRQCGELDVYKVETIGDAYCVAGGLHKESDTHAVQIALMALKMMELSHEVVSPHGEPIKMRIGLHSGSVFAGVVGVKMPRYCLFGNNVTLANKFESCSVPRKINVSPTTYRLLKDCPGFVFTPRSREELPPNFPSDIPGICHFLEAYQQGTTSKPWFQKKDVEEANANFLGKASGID
As to the kind of experiment: Activation of the soluble guanylate cyclase (cGMP enzyme immunoassay). The data set is classed as biochemical. As to conditions: n-fold stimulation of basal enzyme activity = [cGMP]test substance/[cGMP]control. As to the method:
1. Activation of the Soluble Guanylate Cyclase
The activation of the sGC, which catalyzes the conversion of GTP into cyclic guanosine monophosphate cGMP and pyrophosphate, by the compounds according to the invention was quantified with the aid of an enzyme immunoassay “EIA” from Amersham. For this purpose the substances to be tested were initially incubated with sGC in microtiter plates, and the amount of the cGMP formed was then determined.
The test solutions (100 μl per well) contained 50 mM triethanolamine “TEA” buffer (pH 7.5), 3 mM MgCl2, 3 mM reduced glutathione “GSH,” 0.1 mM GTP, 1 mM 3-isobutyl-1-methylxanthine “IBMX,” suitably diluted enzyme solution and the substance to be tested or, in the control experiments, the solvent. […] The DMSO concentration in the test solution was 5% (v/v). The reaction was initiated by addition of the sGC. The reaction mixture was incubated at 37° C. for 15 to 20 minutes and then stopped by ice-cooling and addition of the stop reagent (50 mM EDTA, pH 8.0). An aliquot of 50 μl was taken and used for determining the cGMP content using the acetylation protocol of the Amersham cGMP-EIA kit. The absorption of the samples was measured at 450 nm (reference wavelength 620 nm) in a microtiter plate reader. The cGMP concentration was determined using a standard curve which was obtained under the same test conditions. […] This is calculated using the formula: n-fold stimulation=[cGMP]test substance/[cGMP]control.

In another data set the test system is rat aorta rings. As to the kind of experiment: Relaxation of rat aorta (phenylephrine-precontracted aorta rings, organ bath). More on the design: species or system rat (Wistar-Kyoto). The conditions noted are these: concentration by which phenylephrine (1 μM) contraction is inhibited by 50% (50% relaxation). The source says:
2. Relaxation of Rat Aorta
For this test, normotensive male Wistar-Kyoto rats were sacrificed by a blow to the neck. The abdominal cavity and the thorax were opened by a medium sternotomy. The descending aorta was subsequently removed, freed of connective tissue and divided into 8 rings of a length of approximately 4 mm. The tip of a pair of tweezers was introduced into the lumen of 4 of the 8 rings. The endothelium was removed by carefully rolling the rings over the tip of the pair of tweezers. All 8 aorta rings (4 with endothelium and 4 without endothelium) were subsequently suspended in an organ bath (Schuler-Organbad; Hugo Sachs Elektronik) at a constant temperature of 37° C. for the isometric determination of the contractile tone. For 30 minutes, the rings were calibrated at a resting tension of 1 g in carbonated (95% O2; 5% CO2) Krebs-Henseleit solution (composition: Na^+ 144.0 mM; K^+ 5.9 mM; Cl^− 126.9 mM; Ca^2+ 1.6 mM; Mg^2+ 1.2 mM; H2PO4^− 1.2 mM; SO4^2− 1.2 mM; HCO3^− 25.0 mM; D-glucose 11.1 mM) of pH 7.4. […] After a 30-minute washing period, the rings were then again precontracted by addition of phenylephrine (1 μM), and the relaxing action of the test substances of the formula I was determined by administration of cumulative doses of the latter. The data were evaluated by standard methods. […]

Usually melting point stands for the temperature, or range, at which the solid turns liquid. In the case of `O=C(O)c1ccc(-c2nn(-c3cc(C(F)(F)F)cc(C(F)(F)F)c3)c3ccccc23)o1` [Example 4, 3-(5-Carboxy-2-furyl)-1-(3,5-bis(trifluoromethyl)phenyl)indazole], the melting point was in the range of 256 to 257 °C.
Still for that read-out and setting: the same measure for `CCOC(=O)c1ccc(-c2nn(-c3cc(C(F)(F)F)cc(C(F)(F)F)c3)c3ccccc23)o1` [Example 5, 3-(5-Ethoxycarbonyl-2-furyl)-1-(3,5-bis(trifluoromethyl)phenyl)indazole]: 128 to 129 °C.
On to `OCc1ccc(-c2nn(-c3cc(C(F)(F)F)cc(C(F)(F)F)c3)c3ccccc23)o1` [Example 6, 3-(5-Hydroxymethyl-2-furyl)-1-(3,5-bis(trifluoromethyl)phenyl)indazole], for which the melting point lay in the range of 136 to 138 °C. Besides, the n-fold stimulation in data set [1] (concentration 10 μM) was 3.3-fold.
As to `O=C(OCCO)c1ccc(-c2nn(Cc3ccccc3)c3ccccc23)o1` [Example 7, 1-Benzyl-3-(5-((2-hydroxyethoxy)carbonyl)-2-furyl)indazole], the n-fold stimulation in data set [1] (concentration 100 μM) was 5.5-fold.
`O=C(Nc1ccccc1)c1ccc(-c2nn(Cc3ccccc3)c3ccccc23)o1` [Example 21, 1-Benzyl-3-(5-(N-phenylcarbamoyl)-2-furyl)indazole] came in with a melting point of 138 to 143 °C. Further, in data set [1] (concentration 100 μM), the n-fold stimulation was 3-fold.
As for `O=C(Nc1ccc(Cl)cc1)c1ccc(-c2nn(Cc3ccccc3)c3ccccc23)o1` [Example 22, 1-Benzyl-3-(5-(N-(4-chlorophenyl)carbamoyl)-2-furyl)indazole], the melting point fell in the range of 202 to 205 °C.
The same measure, in the same setting: the value for `O=C(Nc1ccc([N+](=O)[O-])cc1)c1ccc(-c2nn(Cc3ccccc3)c3ccccc23)o1` [Example 23, 1-Benzyl-3-(5-(N-(4-nitrophenyl)carbamoyl)-2-furyl)indazole] was 204 to 208 °C.
For `O=C(Nc1ccc2ccccc2c1)c1ccc(-c2nn(Cc3ccccc3)c3ccccc23)o1` [Example 24, 1-Benzyl-3-(5-(N-(2-naphthyl)carbamoyl)-2-furyl)indazole], the melting point was found to be 167 °C.
The molecule `O=C(Nc1nccs1)c1ccc(-c2nn(Cc3ccccc3)c3ccccc23)o1` [Example 25, 1-Benzyl-3-(5-(N-(2-thiazolyl)carbamoyl)-2-furyl)indazole] displayed a melting point of 167 to 168 °C. Also, the n-fold stimulation in data set [1] (concentration 10 μM) is on record as 2.8-fold.
As for `O=C(NOCc1ccccc1)c1ccc(-c2nn(Cc3ccccc3)c3ccccc23)o1` [Example 26, 1-Benzyl-3-(5-(N-(benzyloxy)carbamoyl)-2-furyl)indazole], the melting point was 140 to 143 °C.
`CN(C(=O)c1ccc(-c2nn(Cc3ccccc3)c3ccccc23)o1)c1ccccc1` [Example 27, 1-Benzyl-3-(5-(N-methyl-N-phenylcarbamoyl)-2-furyl)indazole] returned a melting point of 190 °C.
Take `COc1ccc(NC(=O)c2ccc(-c3nn(Cc4ccccc4)c4ccccc34)o2)cc1` [Example 28, 1-Benzyl-3-(5-(N-(4-methoxyphenyl)carbamoyl)-2-furyl)indazole]: the melting point stood at 175 °C.
The same measure, in the same setting: the value for `O=C(Nc1ccccc1O)c1ccc(-c2nn(Cc3ccccc3)c3ccccc23)o1` [Example 29, 1-Benzyl-3-(5-(N-(2-hydroxyphenyl)carbamoyl)-2-furyl)indazole] was 196 to 197 °C; that for `CC(C)NC(=O)c1ccc(-c2nn(Cc3ccccc3)c3ccccc23)o1` [Example 31, 1-Benzyl-3-(5-(N-isopropylcarbamoyl)-2-furyl)indazole] was 156 °C; that for `CCCNC(=O)c1ccc(-c2nn(Cc3ccccc3)c3ccccc23)o1` [Example 32, 1-Benzyl-3-(5-(N-(n-propyl)carbamoyl)-2-furyl)indazole] was 152 °C.
On the same count and under the same terms, the same measure for `O=C(NC1CCCCC1)c1ccc(-c2nn(Cc3ccccc3)c3ccccc23)o1` [Example 33, 1-Benzyl-3-(5-(N-cyclohexylcarbamoyl)-2-furyl)indazole]: 165 °C; for `O=C(NCc1ccccc1)c1ccc(-c2nn(Cc3ccccc3)c3ccccc23)o1` [Example 34, 1-Benzyl-3-(5-(N-benzylcarbamoyl)-2-furyl)indazole]: 113 to 124 °C.
Still for that read-out and setting: the value for `CN(C)CCNC(=O)c1ccc(-c2nn(Cc3ccccc3)c3ccccc23)o1` [Example 35, 1-Benzyl-3-(5-(N-(2-dimethylaminoethyl)carbamoyl)-2-furyl)indazole] was 130 °C; that for `CC(C)N(CCNC(=O)c1ccc(-c2nn(Cc3ccccc3)c3ccccc23)o1)C(C)C` [Example 36, 1-Benzyl-3-(5-(N-(2-diisopropylaminoethyl)carbamoyl)-2-furyl)indazole] was 119 to 127 °C.
On to `NC(=O)CNC(=O)c1ccc(-c2nn(Cc3ccccc3)c3ccccc23)o1` [Example 37, 1-Benzyl-3-(5-(N-(carbamoylmethyl)carbamoyl)-2-furyl)indazole], for which the melting point was in the range of 219 to 222 °C.
Take `O=C(NCc1ccccn1)c1ccc(-c2nn(Cc3ccccc3)c3ccccc23)o1` [Example 38, 1-Benzyl-3-(5-(N-(2-pyridylmethyl)carbamoyl)-2-furyl)indazole]: the melting point turned out to be 160 °C.
By IC50 is commonly meant the point on the concentration scale where inhibition reaches its midpoint. A low value points to inhibition by little substance. As to `CNC(=O)c1ccc(-c2nn(Cc3ccccc3)c3ccccc23)o1` [Example 40, 1-Benzyl-3-(5-(N-methylcarbamoyl)-2-furyl)indazole], the n-fold stimulation in data set [1] (concentration 100 μM) was 2.4-fold. Also, the IC50 was 2400 nM in the data set on rat aorta rings (Ring with endothelium) and 200 nM in the data set with rat aorta rings (Ring without endothelium).
The molecule `OC(c1ccccc1)c1ccc(-c2nn(Cc3ccccc3)c3ccccc23)o1` (stereo not shown) [Example 43, 1-Benzyl-3-(5-(1-hydroxy-1-phenylmethyl)-2-furyl)indazole] returned a melting point of 138 to 139 °C.
